#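 Briefly, cells in 96-well plates were exposed to five compound concentrations for 48 h, and endpoints were estimated by linear interpolation. GI50: concentration for 50% inhibition of growth.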 The source made the active and inactive calls. Rule as the data show it: active = GI50 up to about 1.1 µM and inactive = higher.
# Columns and labels:
# Experiment in all cases: NCI-60 cell line screen, 48 h
# [1] = test system: 786-0
# [2] = test system: HCT-15
# [3] = test system: Malme-3M
# [4] = test system: SF-268
# [5] = test system: CCRF-CEM
# [6] = test system: KM-20L2
# [7] = test system: A549
# [8] = test system: OVCAR-4
# [9] = test system: NCI-H23
# [10] = test system: SNB-19
# [11] = test system: ACHN
# [12] = test system: SF-539
# [13] = test system: SF-295
# [14] = test system: SW-620
# [15] = test system: CAKI-1
# [16] = test system: SK-MEL-2
# [17] = test system: U-251
# [18] = test system: UO-31
# [19] = test system: UACC-257
# [20] = test system: SK-MEL-5
# [21] = test system: LXFL 529
# [22] = test system: SK-OV-3
# [23] = test system: DMS-114
# [24] = test system: M14
# [25] = test system: NCI-H226
# [26] = test system: EKVX
# [27] = test system: IGROV-1
# [28] = test system: DMS-273
# [29] = test system: HT-29
# [30] = test system: HOP-18
# [31] = test system: HCC 2998
# [32] = test system: HOP-92
# [33] = test system: LOX IMVI
# [34] = test system: SK-MEL-28
# [35] = test system: NCI-H522
# [36] = test system: M19-MEL
# [37] = test system: A498
# [38] = test system: COLO 205
# [39] = test system: KM12
# [40] = test system: DLD-1
# [41] = test system: NCI-H460
# [42] = test system: SNB-78
# [43] = test system: UACC-62
# [44] = test system: HOP-62
# [45] = test system: RPMI-8226
# [46] = test system: OVCAR-5
# [47] = test system: OVCAR-3
# [48] = test system: K562
# [49] = test system: XF498
# [50] = test system: TK-10
# [51] = test system: HL-60
# [52] = test system: MOLT-4
# [53] = test system: HCT-116
# [54] = test system: SR
# [55] = test system: RXF 393
# [56] = test system: OVCAR-8
# [57] = test system: RXF 631
# [58] = test system: SN12C
smiles,measurement,setting,value
CC(=O)C1=C(O)C2C3c4c[nH]c5cccc(c45)CC3C(C)(C)N2C1=O (stereo not drawn),GI50,[1],19.3 µM (inactive)
same,GI50,[2],34.6 µM
same,GI50,[3],33.9 µM (inactive)
same,GI50,[4],27.4 µM (inactive)
same,GI50,[5],27.2 µM (inactive)
same,GI50,[6],31.6 µM (inactive)
same,GI50,[7],28.7 µM (inactive)
same,GI50,[8],> 100 µM (inactive)
same,GI50,[9],11.6 µM (inactive)
same,GI50,[10],15.4 µM (inactive)
same,GI50,[11],28.2 µM (inactive)
same,GI50,[12],15.6 µM (inactive)
same,GI50,[13],24.3 µM (inactive)
same,GI50,[14],30.3 µM (inactive)
same,GI50,[15],> 100 µM (inactive)
same,GI50,[16],13.1 µM (inactive)
same,GI50,[17],17.1 µM (inactive)
same,GI50,[18],25.6 µM (inactive)
same,GI50,[19],62.2 µM (inactive)
same,GI50,[20],11.7 µM (inactive)
same,GI50,[21],78.3 µM (inactive)
same,GI50,[22],> 100 µM (inactive)
same,GI50,[23],20.4 µM (inactive)
same,GI50,[24],> 100 µM (inactive)
same,GI50,[25],17.3 µM (inactive)
same,GI50,[26],20.6 µM (inactive)
same,GI50,[27],> 100 µM (inactive)
same,GI50,[28],27.5 µM (inactive)
same,GI50,[29],34.4 µM (inactive)
same,GI50,[30],21.2 µM (inactive)
same,GI50,[31],23.1 µM (inactive)
same,GI50,[32],> 100 µM (inactive)
same,GI50,[33],16.2 µM (inactive)
same,GI50,[34],21.6 µM (inactive)
same,GI50,[35],11.9 µM (inactive)
same,GI50,[36],> 100 µM (inactive)
same,GI50,[37],20.1 µM (inactive)
same,GI50,[38],> 100 µM (inactive)
same,GI50,[39],40.5 µM (inactive)
same,GI50,[40],40.8 µM (inactive)
same,GI50,[41],10.8 µM (inactive)
same,GI50,[42],> 100 µM (inactive)
same,GI50,[43],44.1 µM (inactive)
same,GI50,[44],6.46 µM (inactive)
same,GI50,[45],4.85 µM (inactive)
same,GI50,[46],16.6 µM (inactive)
same,GI50,[47],23.1 µM (inactive)
same,GI50,[48],45.7 µM (inactive)
same,GI50,[49],51.4 µM (inactive)
same,GI50,[50],46.5 µM (inactive)
same,GI50,[51],3.05 µM (inactive)
same,GI50,[52],15.6 µM (inactive)
Cn1c(C2CCCc3c2c2ccccc2n3C)cc2ccccc21 (stereo not drawn),GI50,[53],142 µM (inactive)
same,GI50,[1],> 318 µM (inactive)
same,GI50,[2],43.1 µM
same,GI50,[3],20.5 µM (inactive)
same,GI50,[4],110 µM (inactive)
same,GI50,[5],140 µM (inactive)
same,GI50,[6],179 µM (inactive)
same,GI50,[7],128 µM (inactive)
same,GI50,[54],71.9 µM (inactive)
same,GI50,[9],40.2 µM (inactive)
same,GI50,[10],> 318 µM (inactive)
same,GI50,[11],> 318 µM (inactive)
same,GI50,[12],> 318 µM (inactive)
same,GI50,[13],70 µM (inactive)
same,GI50,[14],78 µM (inactive)
same,GI50,[15],115 µM (inactive)
same,GI50,[16],85.7 µM (inactive)
same,GI50,[17],174 µM (inactive)
same,GI50,[19],90.2 µM (inactive)
same,GI50,[55],95.1 µM (inactive)
same,GI50,[20],72.9 µM (inactive)
same,GI50,[21],121 µM (inactive)
same,GI50,[56],> 318 µM (inactive)
same,GI50,[22],100 µM (inactive)
same,GI50,[23],34.3 µM (inactive)
same,GI50,[25],216 µM (inactive)
same,GI50,[26],115 µM (inactive)
same,GI50,[27],31.6 µM (inactive)
same,GI50,[28],57.3 µM (inactive)
same,GI50,[29],83 µM (inactive)
same,GI50,[30],8.02 µM (inactive)
same,GI50,[31],186 µM (inactive)
same,GI50,[32],1.5 µM (inactive)
same,GI50,[33],130 µM (inactive)
same,GI50,[34],114 µM (inactive)
same,GI50,[35],40.4 µM (inactive)
same,GI50,[36],85.5 µM (inactive)
same,GI50,[38],140 µM (inactive)
same,GI50,[39],30.6 µM (inactive)
same,GI50,[57],126 µM (inactive)
same,GI50,[40],126 µM (inactive)
same,GI50,[41],125 µM (inactive)
same,GI50,[43],35.8 µM (inactive)
same,GI50,[44],286 µM (inactive)
same,GI50,[46],136 µM (inactive)
same,GI50,[58],222 µM (inactive)
same,GI50,[47],36.2 µM (inactive)
same,GI50,[48],74 µM (inactive)
same,GI50,[50],> 318 µM (inactive)
same,GI50,[51],65.5 µM (inactive)
same,GI50,[52],89.5 µM (inactive)
